Measured values from patent publication US20120277171A1, “Warmi®, natural alternative for the treatment of menopause” (priority 2011, published 2012).

Key:
[1] = Clinical trial: anthropometric parameters and vital signs; assay type: in vivo, human; conditions: mean ± SD
Experimental: (§1) Prospective, longitudinal, double blind, three stage, comparative clinical and laboratory evaluation trials on symptomatic postmenopausal women who attended the menopause medical units of the Hospital Nacional Cayetano Heredia, Hospital Nacional Arzobispo Loayza, Hospital Docente Madre Niño San Bartolomé and the medical unit of the Universidad Nacional Agraria La Molina.
(§2) Warmi® capsules (510 mg) were manufactured by Laboratorios Hersil S.A. Capsules were manufactured following Good Manufacturing Practices (GMP) and following the Hazard Analysis and Critical Control Points (HACCP). Warmi® is a natural proprietary blend composed of β-sitosterol, glucosinolates and citrus flavonoids (hesperidin). […] Patients received 3 capsules a day to be taken every 6 hours.
Tibolone was used as HRT. Tibolone was masked in a capsule with the same appearance as the previous groups. Patients received 3 capsules a day to be taken every 6 hours. Tibolone is the latest treatment for menopausal symptoms in Peru. Tibolone is a synthetic steroid with estrogenic, progestogenic and androgenic activity, used for the treatment of menopausal symptoms and post-menopausal osteoporosis. It has been observed that Tibolone reduces the level of triglycerides, HDL, total cholesterol and with no effect on the LDL.
The sample group was integrated by symptomatic postmenopausal women who attend the menopause centers of the participating hospitals. 135 participants were accepted in the study and each hospital recruited the patients that were randomly assigned to the three treatment groups: Warmi®, Tibolone and placebo.
The statistical analysis was done using a SPSS statistical package (version 11.0). […] The variables were analyzed as a change in relation to the basal level and compared by treatment groups.

[2] = human, in vivo
Experimental: as §1, §2
Tibolone was used as HRT. Tibolone was masked in a capsule with the same appearance as the previous groups. Patients received 3 capsules a day to be taken every 6 hours. […]
The statistical analysis was done using a SPSS statistical package (version 11.0). The results were expressed as a mean±standard error (SE), and a p<0.05 was considered significant. The variables were analyzed as a change in relation to the basal level and compared by treatment groups.
There was a small decrease in the hematocrit (1.43%) of the placebo group. […] Upon observing the other quantifiable parameters, no significant changes are noticed.

[3] = system: FSH, LH, estradiol, progesterone and DHEAS; test: Clinical trial: hormone count in serum (immunochemical luminescence); assay type: in vivo, human; conditions: for reduction of FSH: FIG. 2
Experimental: Laboratory tests were requested prior to the beginning of the treatments (basal levels) and after 3 and 6 months. The levels of the following hormones were measured in the Laboratory of the Molecular Biotechnology Unit of the Research and Development Laboratories of the Universidad Peruana Cayetano Heredia: FSH, LH, estradiol, progesterone and DHEAS. The following normal menopausal values shall be considered: FSH of between 25.0 and 134.8 mlU/mL, LH of between 7.7 and 58.5 mlU/mL, estradiol between <10.0 and 39.5 pg/mL and progesterone between 0.20 and 1.00 ng/mL.
In order to determine the hormonal levels, a peripheral blood test was taken from each patient on an empty stomach and the serum FSH, LH, estradiol, progesterone and DHEAS levels were taken using the immunochemical luminescence method, following the standardized procedures of the laboratory.

[4] = system: triglycerides (TG), total cholesterol (TC), HDL, LDL and serum glucose levels; test: Clinical trial: lipids and glucose count; assay type: in vivo, human
Experimental: The triglycerides (TG), total cholesterol (TC), HDL, LDL and serum glucose levels (Valtek S.A.) were measured based on a peripheral blood test prior to the start of the treatment, at months 1, 3 and 6 following treatment. TG, TC and HDL levels were measured with a MicroLab semiautomatic analyzer, through an enzymatic colorimetric technique, using the manufacturer's manual and procedures. Normal values shall be TC<200 mg/dL, HDL>35 mg/dL, LDL<130 mg/dL and TG<170 mg/dL.

[5] = system: TNF-α, INF-y and IL-6 cytokines; test: Clinical trial: cytokine count; assay type: in vivo, human
Experimental: Peripheral blood samples were obtained in vacutainer test tubes with anticoagulant (Becton Dickenson, BD). The biological sample was previously centrifuged and stored at a −70° C. for the respective cytokine count. Type Th1: TNF-α, INF-y and Th2: IL-6 cytokines were counted. The manufacturer's instructions were followed and the cytokine concentrations were calculated according to the specifications (Pharmingen, BD). Cytokines were measured prior to and upon conclusion of the treatment.
(§3) The levels of cytokines, osteocalcin, growth hormone and C-reactive protein were measured in the Laboratory of the Molecular Biotechnology Unit of the Research and Development Laboratories of the Universidad Peruana Cayetano Heredia (UPCH). All laboratory procedures were conducted in duplicate, standards were used to ensure the reproducibility and quality of the results.

human osteocalcin = test: Clinical trial: plasma osteocalcin (EASIA); assay type: in vivo; conditions: after 6 months of treatment; FIG. 13
Experimental: Plasma osteocalcin was measured through the EASIA technique (Enzyme Amplified Sensitivity Immunoassay) using monoclonal antibodies against different epitopes of human osteocalcin (Biosource International, Inc., USA), with a sensitivity of 0.4 ng/mL. Human osteocalcin was measured at the beginning of the treatment and after 6 months of treatment, according to the manufacturer's instructions.
as §3

C-reactive protein = test: Clinical trial: C-reactive protein (ELISA); assay type: in vivo, human; conditions: after 6 months of treatment
Experimental: C-reactive protein from human plasma (Diagnostic Automation Inc., USA) was tested with a very sensitive ELISA using a monoclonal antibody against a different antigenic determinant on the C-Reactive Protein molecule, with a sensitivity of […]. C-reactive protein (CRP) was measured prior to treatment and after 6 months of treatment, according to the manufacturer's instructions.
as §3

[6] = system: symptomatic postmenopausal women; test: Greene Climateric Scale; assay type: in vivo, human; conditions: FIGS. 31-35
Excerpt: The changes are observed in sub-categories of Anxiety, Depression, Vasomotor Symptoms and Sexual Aspects.

C#C[C@]1(O)CC[C@H]2[C@@H]3[C@H](C)CC4=C(CCC(=O)C4)[C@H]3CC[C@@]21C [Tibolone]
Diastolic BP ([1]; 3rd Month): 72.5 ± 10.83 | Heart Rate ([1]; 3rd Month): 63.66 ± 1.96 | Pulse Pressure ([1]; 3rd Month): 64 ± 1.78 | Respiratory Rate ([1]; 3rd Month): 16.33 ± 0.98 | Systolic BP ([1]; 3rd Month): 113.33 ± 8.16 | Diastolic BP ([1]; 6th Month): 73.16 ± 11.4 | Heart Rate ([1]; 6th Month): 62.67 ± 2.42 | Pulse Pressure ([1]; 6th Month): 62.67 ± 2.42 | Systolic BP ([1]; 6th Month): 110 ± 8.98 | Respiratory Rate ([1]; 6th Month, *p ≦ 0.05): 16.16 ± 0.41 | increase in the hematocrit [2]: 3.53% | reduction of FSH ([3]; month six of treatment): 16.20% | reduction of FSH ([3]; month three of treatment): 29.58% | drop of DHEAS in serum ([3]; month three, FIG. 3): 12.87% | decrease of progesterone ([3]; month three, FIG. 4): 29.70% | effect on triglycerides levels (in words) ([4]; FIG. 8): significant decrease | effect on HDL levels (in words) ([4]; FIG. 9, Tibolone: after 1, 3 and 6 months of treatment): significant reduction | effect on LDL levels (in words) ([4]; FIG. 10): significant reduction | effect on LDL/HDL ratio (in words) ([4]; FIG. 12, Tibolone: after six months, Warmi: after both 3 and 6 months): reduction | reduction of total cholesterol ([4]; after six months of treatment, FIG. 7): 12.37% | reduction in the level of glycemia ([4]; at the end of the study, FIG. 6): 7.39% | effect on interferon gamma (INF-y) (in words) ([5]; FIG. 16, none were significant): slight increases | effect on Interleukin 6 (IL-6) levels (in words) ([5]; FIG. 17, Tibolone: after 3 months alone, Warmi: after both treatment periods): significantly reduced | effect on osteocalcin levels (in words) (human osteocalcin): significant reduction | increase of CRP (change in percentage) (C-reactive protein): 26.83% | Greene survey: sub-categories Anxiety, Depression, Vasomotor Symptoms and Sexual Aspects (in words) [6]: Changes were also observed
